Test results taken from paper PMC11850127 (The Journal of Biological Chemistry, 2025).
“Also recorded” adds a separate entry of the source. Starred links: 1 amine or outer side, 2 acyl side, 3 side chain; linkers in the order of their positions; H or OH if unused. Positions of bridges follow the written chain, without caps; N, C: chain ends. Non-standard residues stand in square brackets, D forms with d. Residues, ends and D or L forms follow the SMILES beside them. Chains are numbered I, II in the order given. Actinocin(9to1) = Cc1c2oc3c(C)ccc(C(=O)[*:1])c3nc-2c(C(=O)[*:2])c(N)c1=O; NMeV = CN[C@H](C(=O)O)C(C)C; Sar = CNCC(=O)O

Test system: [V13′T]α10 nAChR
Format: cell-based, human (expressed in Xenopus laevis oocytes)

Cc1c2oc3c(C)ccc(C(=O)N[C@@H]4C(=O)N[C@H](C(C)C)C(=O)N5CCC[C@H]5C(=O)N(C)CC(=O)N(C)[C@@H](C(C)C)C(=O)O[C@@H]4C)c3nc-2c(C(=O)N[C@@H]2C(=O)N[C@H](C(C)C)C(=O)N3CCC[C@H]3C(=O)N(C)CC(=O)N(C)[C@@H](C(C)C)C(=O)O[C@@H]2C)c(N)c1=O [actinomycin D] (I: T[dV]P[Sar][NMeV] / II: T[dV]P[Sar][NMeV]; ester I:1-I:C, II:1-II:C; linker I:N-II:N via Actinocin(9to1))
effect of actinomycin D on ACh-induced currents: did not differ in the magnitude of their ACh-induced currents from untreated controls; also recorded: not significantly different
mean ACh-induced response with actinomycin D: −233 ± 219 nA
